From patent publication US11389415B2, “Methods of regulating cannabinoid receptor activity-related disorders and diseases” (The United States of America as represented by the …, priority 2012, dated 2022)

Tested on: rat C6 glioma xenografts
Assay: Gene expression profiling (microarray, GO term and PAGE gene set analysis) in rat C6 glioma xenografts
Type: in vivo, mouse
Details: MNF_Control
Experimental: Analysis of gene expression in rat C6 glioma xenografts. Total RNA was isolated from rat C6 glioma xenografts harvested from vehicle and MNF-treated mice (n=3 per group, cohort 1). This analysis was repeated in a second cohort of animals (n=3 per group, cohort 2). Total cellular RNA was extracted using an RNeasy plus mini kit (QIAGEN, Valencia, Calif.), and its quality was assessed using an Agilent BioAnalyzer using RNA 6000 Nano Chips (Agilent Technologies, Santa Clara, Calif.). Transcriptional profiling was determined using Illumina Sentrix BeadChips (Illumina, San Diego, Calif.). Total RNA was used to generate biotin-labeled cRNA with the Illumina TotalPrep RNA Amplification Kit. In short, 0.5 ug of total RNA was first converted into single-stranded cDNA with reverse transcriptase using an oligo-dT primer containing the T7 RNA polymerase promoter site and then copied to produce double-stranded cDNA molecules. The double-stranded cDNA was cleaned and concentrated with the supplied columns and used in an overnight in-vitro transcription reaction where single-stranded RNA (cRNA) was generated incorporating biotin-16-UTP. A total of 0.75 μg of biotin-labeled cRNA was hybridized at 58° C. for 16 hours to Illumina's Sentrix Rat Ref-12 Expression BeadChips. Each BeadChip has ˜22,000 well-annotated RefSeq transcripts with approximately 30-fold redundancy. The arrays were washed, blocked and the labeled cRNA was detected by staining with streptavidin-Cy3. Hybridized arrays were scanned using an Illumina BeadStation 500× Genetic Analysis Systems scanner and the image data extracted using Illumina's GenomeStudio software, version 1.6.1. For statistical analysis, the expression data were filtered to include only probes with a consistent signal on each chip and an Illumina detecton p value <0.02.
Correlation analysis, sample clustering analysis and principal component analysis was performed to identify/exclude any possible outliers. The resulting dataset was next analyzed with DIANE 6.0, a spreadsheet-based microarray analysis program using value statistics for Z-Score reliability below 0.05; and mean background-corrected signal intensity greater than zero.
Gene set enrichment analysis use gene expression values or gene expression change values for all of the genes in the microarray. Parametric analysis of gene set enrichment (PAGE) was used using the WEB-PAGE GSA tool for gene set analysis. Gene Sets include the MSIG database, Gene Ontology Database, GAD human disease and mouse phenotype gene sets were used to explore functional level changes. Gene-gene interaction was also analyzed using the INGENUITY® Pathway Analysis (IPA) system (INGENUITY® Systems).

COc1ccc(C[C@@H](C)NC[C@H](O)c2cc(O)cc(O)c2)c2ccccc12 [(R,R′)-MNF, (R,R′)-4′-methoxy-1-naphthylfenoterol]
Z score, ADIP_DIFF_CLUSTERS (cohort 1): −4.6054 | Z score, ATRBRCAPATHWAY (cohort 1): −1.8815 | Z score, BRCA_PROGNOSIS_NEG (cohort 1): −3.2974 | Z score, BRENTANI_REPAIR (cohort 1): −3.8568 | Z score, CANCER_UNDIFFERENTIATED_META_UP (cohort 1): −4.8288 | Z score, CELL_CYCLE (cohort 1): −5.0187 | Z score, CELL_CYCLE_KEGG (cohort 1): −4.1925 | Z score, CMV_IE86_UP (cohort 1): −6.1497 | Z score, CROONQUEST_IL6_STARVE_UP (cohort 1): −6.5055 | Z score, CROONQUIST_IL6_RAS_DN (cohort 1): −6.7147 | Z score, DAC_FIBRO_DN (cohort 1): −4.4476 | Z score, DNA_REPLICATION_REACTOME (cohort 1): −3.8683 | Z score, DOX_RESIST_GASTRIC_UP (cohort 1): −5.8557 | Z score, E2F1_DNA_UP (cohort 1): −3.6781 | Z score, GAY_YY1_DN (cohort 1): −7.6370 | Z score, GOLDRATH_HP (cohort 1): −2.4433 | Z score, HDACI_COLON_BUT12 HRS_UP (cohort 1): 5.3212 | Z score, HDACI_COLON_BUT16HRS_UP (cohort 1): 3.6723 | Z score, HDACI_COLON_BUT24HRS_UP (cohort 1): 3.0864 | Z score, HDACI_COLON_TSABUT_UP (cohort 1): 4.1465 | Z score, HIPPOCAMPUS_DEVELOPMENT_POSTNATAL (cohort 1): 3.6731 | Z score, HOFFMANN_BIVSBII_BI_TABLE2 (cohort 1): −5.1273 | Z score, HYPOPHYSECTOMY_RAT_DN (cohort 1): 3.6187 | Z score, IDX_TSA_UP_CLUSTER3 (cohort 1): −6.1057 | Z score, IRITANI_ADPROX_LYMPH (cohort 1): −5.1468 | Z score, KAMMINGA_EZH2_TARGETS (cohort 1): −5.3211 | Z score, KENNY_WNT_UP (cohort 1): −4.0135 | Z score, LAMB_CYCLIN_D3_GLOCUS (cohort 1): −2.8637 | Z score, LEE_TCELLS2_UP (cohort 1): −4.1051 | Z score, LEE_TCELLS3_UP (cohort 1): −7.2409 | Z score, LI_FETAL_VS_WT_KIDNEY_DN (cohort 1): −5.4447 | Z score, MANALO_HYPOXIA_DN (cohort 1): −3.2723 | Z score, MIDDLEAGE_DN (cohort 1): −3.6696 | Z score, MOREAUX_TACI_HI_IN_PPC_UP (cohort 1): −2.9881 | Z score, MOREAUX_TACI_HI_VS_LOW_DN (cohort 1): −4.3721 | Z score, OLDAGE_DN (cohort 1): −4.5391 | Z score, P21_P53_ANY_DN (cohort 1): −5.0275 | Z score, PEART_HISTONE_DN (cohort 1): −2.5055 | Z score, PODI_KO_UP (cohort 1): −3.9363 | Z score, PRMT5_KD_UP (cohort 1): −9.3903 | Z score, REN_E2F1_TARGETS (cohort 1): −2.9150 | Z score, SASAKI_ATL_UP (cohort 1): −5.0963 | Z score, SASAKI_TCELL_LYMPHOMA_VS_CD4_UP (cohort 1): −5.0963 | Z score, SERUM_FIBROBLAST_CELLCYCLE (cohort 1): −7.2985 | Z score, SHEPARD_BMYB_MORPHOLINO_DN (cohort 1): −4.3350 | Z score, SHEPARD_CRASH_AND_BURN_MUT_VS_WT_DN (cohort 1): −3.9994 | Z score, SHEPARD_GENES_COMMON_BW_CB_MO (cohort 1): −4.0300 | Z score, STEMCELL_NEURAL_UP (cohort 1): −6.0983 | Z score, TARTE_MATURE_PC (cohort 1): 3.6636 | Z score, TARTE_PLASMA_BLASTIC (cohort 1): −4.8905 | Z score, VERNELL_PRB_CLSTR1 (cohort 1): −3.4691 | Z score, YU_CMYC_UP (cohort 1): −4.4689 | Z score, ZHAN_MM_CD138_PR_VS_REST (cohort 1): −6.1404 | Z score, ADIP_DIFF_CLUSTERS (cohort 2): −6.8850 | Z score, ATRBRCAPATHWAY (cohort 2): −2.9977 | Z score, BRCA_PROGNOSIS_NEG (cohort 2): −5.4682 | Z score, BRENTANI_REPAIR (cohort 2): −2.9453 | Z score, CANCER_UNDIFFERENTIATED_META_UP (cohort 2): −6.2847 | Z score, CELL_CYCLE (cohort 2): −7.4222 | Z score, CELL_CYCLE_KEGG (cohort 2): −7.0955 | Z score, CMV_IE86_UP (cohort 2): −6.5954 | Z score, CROONQUEST_IL6_STARVE_UP (cohort 2): −9.0059 | Z score, CROONQUIST_IL6_RAS_DN (cohort 2): −7.7040 | Z score, DAC_FIBRO_DN (cohort 2): −4.9523 | Z score, DNA_REPLICATION_REACTOME (cohort 2): −6.5700 | Z score, DOX_RESIST_GASTRIC_UP (cohort 2): −8.6145 | Z score, E2F1_DNA_UP (cohort 2): −4.4885 | Z score, GAY_YY1_DN (cohort 2): −4.7456 | Z score, GOLDRATH_HP (cohort 2): −2.2875 | Z score, HDACI_COLON_BUT12 HRS_UP (cohort 2): 3.6676 | Z score, HDACI_COLON_BUT16HRS_UP (cohort 2): 3.4287 | Z score, HDACI_COLON_BUT24HRS_UP (cohort 2): 3.3154 | Z score, HDACI_COLON_TSABUT_UP (cohort 2): 3.4480 | Z score, HIPPOCAMPUS_DEVELOPMENT_POSTNATAL (cohort 2): 10.3312 | Z score, HOFFMANN_BIVSBII_BI_TABLE2 (cohort 2): −7.7114 | Z score, HYPOPHYSECTOMY_RAT_DN (cohort 2): 3.9294 | Z score, IDX_TSA_UP_CLUSTER3 (cohort 2): −10.1593 | Z score, IRITANI_ADPROX_LYMPH (cohort 2): −3.3728 | Z score, KAMMINGA_EZH2_TARGETS (cohort 2): −7.2448 | Z score, KENNY_WNT_UP (cohort 2): −5.5586 | Z score, LAMB_CYCLIN_D3_GLOCUS (cohort 2): −4.3054 | Z score, LEE_TCELLS2_UP (cohort 2): −5.6671 | Z score, LEE_TCELLS3_UP (cohort 2): −8.0339 | Z score, LI_FETAL_VS_WT_KIDNEY_DN (cohort 2): −9.1715 | Z score, MANALO_HYPOXIA_DN (cohort 2): −6.1956 | Z score, MIDDLEAGE_DN (cohort 2): −7.7600 | Z score, MOREAUX_TACI_HI_IN_PPC_UP (cohort 2): −3.8456 | Z score, MOREAUX_TACI_HI_VS_LOW_DN (cohort 2): −3.2936 | Z score, OLDAGE_DN (cohort 2): −7.1043 | Z score, P21_P53_ANY_DN (cohort 2): −7.4300 | Z score, PEART_HISTONE_DN (cohort 2): −5.2170 | Z score, PODI_KO_UP (cohort 2): −4.3565 | Z score, PRMT5_KD_UP (cohort 2): −5.4620 | Z score, REN_E2F1_TARGETS (cohort 2): −3.5319 | Z score, SASAKI_ATL_UP (cohort 2): −5.5299 | Z score, SASAKI_TCELL_LYMPHOMA_VS_CD4_UP (cohort 2): −5.5299 | Z score, SERUM_FIBROBLAST_CELLCYCLE (cohort 2): −10.6997 | Z score, SHEPARD_BMYB_MORPHOLINO_DN (cohort 2): −4.7947 | Z score, SHEPARD_CRASH_AND_BURN_MUT_VS_WT_DN (cohort 2): −4.0540
